A short description of data set [1]: Mouse brain tissue binding. It is filed as in vitro ADME. As to conditions: read-out: Mouse brain tissue binding fu (%).
Data set [2] deals with T1, CYP2C9 (Homo sapiens, UniProt P11712).
T1 construct: purchased BD Biosciences
Kind of data set: Inhibition of CYP450 2C9. It is filed as in vitro ADME. As to conditions: CYP450 isoform inhibition kit (BD Biosciences), probe MFC. On the procedure: (§1) A HepG2 cytotoxicity assay was used to determine a cellular selectivity index. HepG2 cells were seeded into 96-well plates in EMEM medium. Compounds were assessed for their effect upon cellular viability (Supplementary Methods 5.1). Inhibition of CYP450 was determined using kits from BD Biosciences (Supplementary Methods 5.2). Metabolic stability was determined using mouse […] tested at a single concentration of 5 µM. Plasma protein binding was determined using mouse and human plasma at a single concentration of 10 µM (Supplementary Methods 5.4). All PK studies in mice were carried out by Pharmidex (Supplementary Methods 6.1).
The compounds were investigated for their inhibitory effect on cytochrome P450 (CYP450) activity using five CYP450 isoforms (with fluorescent substrates in brackets): 3A4 (two substrates, BFC and DBF), 2D6 (AMMC), 2C9 (MFC), 2C19 (CEC) and 1A2 (CEC). Kits from BD Biosciences were used along with the method described by the manufacturer. […] Fluorescence was measured using a SpectraMax M5 plate reader.

In data set [3] the test system is T. b. brucei Lister 427. Kind of data set: Mouse model of stage 1 HAT. In kind it is in vivo, T. b. brucei in female CD-1 mice. As to the method:
T. b. brucei Lister 427 infection is cured by 1-day dosing. […] These parasites have a doubling time of ~6 h and infection with 1 × 10^5 parasites usually requires euthanasia of mice within 4–5 days of infection in the absence of drug treatment. Drug efficacy is determined by taking regular blood samples from infected mice and checking microscopically for parasitaemia. In this model of acute infection a single surviving parasite should proliferate to reach detectable levels in ~5 days and a 30-day period of no parasite detection is considered as cure.
For the mouse model of stage 1 HAT T. b. brucei Lister 427 parasites (1 × 10^5) were injected into a single donor female CD-1 mouse (University of Edinburgh; 6–8 weeks old) intraperitoneally in D-PBS containing 10 mM glucose. Parasites for subsequent stage 1 HAT infection were obtained from whole blood via cardiac puncture, under gaseous isoflurane anaesthesia. Parasites (1 × 10^3) harvested from the donor mouse were then injected into the peritoneum of female CD-1 mice (University of Edinburgh; 6–8 weeks old) in D-PBS containing 10 mM glucose. One day after infection, animals were either left untreated (n = 3) or dosed orally by gavage (n = 5) with CTCB compound in Cremophor EL: EtOH: D-PBS (30:10:60 v/v; Supplementary Methods 6.3).
T. b. brucei Lister 427 parasites (1 x 10^5) were injected into a single donor female CD-1 mouse (University of Edinburgh; 6-8 weeks old) intraperitoneally in D-PBS containing 10 mM glucose. Parasites for subsequent Stage 1 HAT infection were obtained from whole blood via cardiac puncture, under gaseous isoflurane anaesthesia as described above. Parasites (1 x 10^3) harvested from the donor mouse were then injected into the peritoneum of female CD-1 mice (University of Edinburgh; 6-8 weeks old) in D-PBS containing 10mM glucose. One day after infection, animals were either left untreated (n=3) or dosed orally by gavage (n=5) with CTCB compound in Cremophor EL: EtOH : D-PBS (30:10:60 v/v). The veterinary trypanocidal drug pentamidine isethionate (2.5 mg/kg for 4 consecutive days after infection) was administered intraperitoneally as control (n=3) for parasite elimination. Mice were monitored daily for parasitaemia day 1 post-infection onwards. Trypanosomes were quantified in blood samples from the tail vein by microscopy as previously described (12). Animals were sacrificed on the day that parasites were first detected in blood samples. (Supplementary Figure 11)

The test system of data set [4] is bloodstream form of T. brucei strain Lister 427. Put plainly: T. b. brucei 427 growth inhibition assay (LILiT, Alamar Blue). In kind it is cell-based. As to conditions: Trypanosoma brucei. On the procedure:
The ‘in vitro’ parasite killing assay used the BSF of the non-human pathogenic subspecies T. b. brucei, strain Lister 427, cultured in HMI-9 medium containing 10% foetal bovine serum. A second cell line, T. b. brucei GVR35-Luc2 which constitutively expresses firefly luciferase was grown in Modified HMI-9 plus 20% foetal calf serum supplemented with 20% Serum Plus (Sigma) and 0.15 μg mL^−1 puromycin. Both strains of trypanosomes were cultured in T-25 vented cap flasks at 37 °C and 5% CO2.
The ‘in vitro’ parasite killing assay used the bloodstream-form of the non-human pathogenic subspecies T. b. brucei, strain Lister 427 (a gift from Professor Keith Matthews) which was cultured in HMI-9 medium containing 10% fetal bovine serum (FBS). A second cell line, T. b. brucei GVR35-Luc2 which constitutively expresses firefly luciferase (5) was grown in Modified HMI-9 plus 20% fetal calf serum (FCS) supplemented with 20% Serum Plus (Sigma) and 0.15 μg/ml puromycin as described previously (5). Both strains of trypanosomes were cultured in T-25 vented cap flasks at 37 °C and 5% CO2.
Growth inhibition tests of bloodstream-form T. b. brucei Lister 427 were carried out using the LILiT (long incubation low inoculation test) method (6). The parasites were cultured in complete HMI-9 medium containing 10% FBS in 96-well plates (Greiner Inc.) with approximately 2500 trypanosomes per well. A 3-fold dilution series (in the range from 45 µM – 0.020 µM) of the inhibitor compounds were prepared in the plate; the maximal concentration of DMSO was 0.45%. After 72 hours of incubation at 37 °C and 5% CO2, 50 µl Alamar Blue (0.2% diluted with Dulbecco’s-phosphate buffered saline (D-PBS, Sigma) was added to each well and plates were incubated at 37 °C and 5% CO2 for 4 hours. Fluorescence was read on the BMG multiplate reader using an excitation wavelength of 530 nm and an emission wavelength of 590 nm.

Data set [5] deals with Human hERG (Homo sapiens, UniProt Q12809). Put plainly: Human hERG inhibition. An excerpt: Methods are described in Supplementary Methods 5 and 6. Enzyme assay results are means ± SD in multiple assays. ADME results are averages of n = 2 or 3 measurements in individual assays.
Chain of Human hERG (Q12809 whole entry): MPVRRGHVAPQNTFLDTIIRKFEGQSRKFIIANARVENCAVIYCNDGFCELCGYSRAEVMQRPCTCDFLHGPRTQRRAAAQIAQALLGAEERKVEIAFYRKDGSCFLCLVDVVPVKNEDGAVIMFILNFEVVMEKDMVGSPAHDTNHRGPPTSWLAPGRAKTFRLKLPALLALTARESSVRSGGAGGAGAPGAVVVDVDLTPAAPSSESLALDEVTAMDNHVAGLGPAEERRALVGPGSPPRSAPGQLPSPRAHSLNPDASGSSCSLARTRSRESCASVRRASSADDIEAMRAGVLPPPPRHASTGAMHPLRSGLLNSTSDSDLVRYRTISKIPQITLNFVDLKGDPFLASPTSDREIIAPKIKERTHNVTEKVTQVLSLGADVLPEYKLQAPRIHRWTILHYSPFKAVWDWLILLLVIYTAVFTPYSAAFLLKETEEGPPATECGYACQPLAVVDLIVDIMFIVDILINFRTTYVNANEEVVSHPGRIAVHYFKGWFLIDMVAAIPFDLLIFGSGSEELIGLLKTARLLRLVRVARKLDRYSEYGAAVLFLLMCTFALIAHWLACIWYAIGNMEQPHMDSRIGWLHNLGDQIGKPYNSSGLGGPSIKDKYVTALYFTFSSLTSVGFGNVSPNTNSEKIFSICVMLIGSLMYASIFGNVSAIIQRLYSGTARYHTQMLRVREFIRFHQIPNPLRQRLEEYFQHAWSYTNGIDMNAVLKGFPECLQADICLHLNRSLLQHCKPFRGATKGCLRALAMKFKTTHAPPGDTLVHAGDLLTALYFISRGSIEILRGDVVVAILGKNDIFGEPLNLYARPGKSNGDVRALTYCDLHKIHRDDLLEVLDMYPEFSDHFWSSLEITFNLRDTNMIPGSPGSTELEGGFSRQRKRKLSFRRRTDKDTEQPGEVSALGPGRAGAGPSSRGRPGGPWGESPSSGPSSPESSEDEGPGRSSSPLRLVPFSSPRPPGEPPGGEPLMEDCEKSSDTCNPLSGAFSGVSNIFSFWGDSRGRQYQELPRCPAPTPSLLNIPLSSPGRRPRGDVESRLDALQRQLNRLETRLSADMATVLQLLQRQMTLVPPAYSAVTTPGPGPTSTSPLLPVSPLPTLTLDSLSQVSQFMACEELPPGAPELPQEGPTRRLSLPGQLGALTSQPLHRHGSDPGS
(The hERG channel carries a current that helps repolarise heart muscle cells.)

In data set [6] the test system is HepG2 cells. Put plainly: HepG2 cytotoxicity assay. As to conditions: for Selectivity: EC50 HepG2 divided by EC50 T. b. brucei parasite killing; for EC50: Homo sapiens, HepG2, 72 h, CellTitreGlo. It is filed as cell-based, human. On the procedure: as §1
To determine a cellular selectivity index, a HepG2 Cytotoxicity Assay was used. HepG2 cells (a human hepatocyte carcinoma cell line) were seeded into 96 well plates in EMEM media. Compounds were assessed for their effect upon cellular viability (6 point dose response curves). After 72h the numbers of viable cells were detected using Promega CellTitreGlo reagent to measure ATP using the luciferase/luciferin detection system. The selectivity index is calculated as the EC50 in the HepG2 assay divided by the EC50 determined in the T. b. brucei parasite killing assay.

Setting [7] is: three oral 50 mg kg^−1 doses 2 h apart daily over 2 days, n = 5.
Where [8] appears, read: 72 h, Alamar Blue, read-out: EC50 (µM) in vitro parasite killing of bloodstream form T. brucei Lister 427 (Tbb EC50).
Setting [9] is: Glycerol 0.75 mM, read-out: EC50.
[10] abbreviates: Glycerol 5.0 mM, read-out: EC50.

The text below walks through data of PMC7887271, “Fast acting allosteric phosphofructokinase inhibitors block trypanosome glycolysis and cure acute African trypanosomiasis in mice” (Nature Communications, 2021).

Entries after “also recorded” stand apart in the source; their conditions may differ. Like-named read-outs stand apart in the source and are kept apart here.

T1 sequence (P11712 whole entry): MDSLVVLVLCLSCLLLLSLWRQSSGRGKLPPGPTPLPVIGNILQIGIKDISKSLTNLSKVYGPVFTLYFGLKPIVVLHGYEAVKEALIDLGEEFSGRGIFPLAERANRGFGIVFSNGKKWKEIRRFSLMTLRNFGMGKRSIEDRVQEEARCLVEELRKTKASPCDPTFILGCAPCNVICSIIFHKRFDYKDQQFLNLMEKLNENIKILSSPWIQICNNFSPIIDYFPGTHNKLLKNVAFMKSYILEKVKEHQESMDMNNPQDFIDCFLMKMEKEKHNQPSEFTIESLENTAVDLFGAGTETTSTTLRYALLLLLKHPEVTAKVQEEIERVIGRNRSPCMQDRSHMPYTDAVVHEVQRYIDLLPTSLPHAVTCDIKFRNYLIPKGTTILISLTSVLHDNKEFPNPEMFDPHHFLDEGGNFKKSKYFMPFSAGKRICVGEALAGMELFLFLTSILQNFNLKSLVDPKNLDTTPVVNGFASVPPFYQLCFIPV

Broadly, the inhibition is the drop in the measured response relative to a control, in per cent. A low value points to a response near the control. By EC50 is commonly meant the concentration at which the effect is half-maximal. In general, IC50 refers to the concentration that gives 50% inhibition. Low values mean greater potency in that assay, high ones weaker potency in that assay. With `CN(C)CCn1ccc2c(ccn2Cc2ccc(F)c(Br)c2)c1=O` [CTCB-508, 1-[(3-Bromo-4-fluorophenyl)methyl]-5-[2-(dimethylamino)ethyl] pyrrolo[3,2-c]pyridin-4-one], in data set [1], the fraction unbound is 0.017. Moreover, in data set [2], testing at 10 µM gave an inhibition of 6.1%. Moreover, in data set [3] (setting [7]), the outcome of treatment is “either complete clearance or a significant increase in survival”. Besides, the EC50 in data set [4] (setting [8]) turned out to be 0.3 ± 0.02 µM; in data set [4] (setting [9]), 0.31 µM; in data set [4] (setting [10]) it was 0.44 µM; in data set [4] (Glycerol […], read-out: EC50), 0.34 µM; in data set [6], 33400 nM. The compound also came in with an IC50 in data set [5] of 4750 nM. The compound also gave a Selectivity in data set [6] of 111.
With `CN(C)CCn1ccc2c(ccn2Cc2ccc(Cl)c(Br)c2)c1=O` [CTCB-470, 1-[(3-Bromo-4-chlorophenyl)methyl]-5-[2-(dimethylamino)ethyl] pyrrolo[3,2-c]pyridin-4-one], in data set [1], the fraction unbound was found to be 0.006. The same compound displayed an inhibition at 10 µM in data set [2] of 28.5%. Also, the outcome of treatment in data set [3] (setting [7]) was “either complete clearance or a significant increase in survival”. In addition, the EC50 in data set [4] (setting [8]) was found to be 0.31 ± 0.03 µM; in data set [4] (Glycerol 0 mM, read-out: EC50), 0.23 µM; in data set [4] (setting [9]), 0.26 µM; in data set [4] (Glycerol […], read-out: EC50), 0.26 µM; in data set [6], 12300 nM. In data set [5], this compound gave an IC50 of 1690 nM. Besides, the Selectivity in data set [6] came out at 39.
For the compound `CNCCn1ccc2c(ccn2Cc2ccc(Cl)c(Cl)c2)c1=O` [CTCB-435], the EC50 in data set [4] (72 h, read-out: EC50 (µM) in vitro parasite killing of bloodstream form T. brucei Lister 427 (Tbb EC50), 72 h, Alamar Blue) was 0.25 ± 0.05 µM.
As for `CN(C)CCn1ccc2c(ccn2Cc2ccc(Cl)c(Cl)c2)c1=O` [CTCB-405, 1-[(3,4-Dichlorophenyl)methyl]-5-[2-(dimethylamino)ethyl] pyrrolo[3,2-c]pyridin-4-one], in data set [1], the fraction unbound was found to be 0.008. The same compound showed an inhibition at 10 µM in data set [2] of 11%. Further, the “delay of onset of parasitaemia” value in data set [3] (single oral doses of 50 mg kg^−1 over four consecutive days) was “up to 12 days”. The outcome of treatment in data set [3] (setting [7]) was “parasite clearance; also recorded: complete cure; also recorded: either complete clearance or a significant increase in survival”; in data set [3] (three oral doses of 100 mg kg^−1 2 h apart on a single day, n = 5), “parasites are undetectable; also recorded: no recurrence of parasitaemia 30 days post infection”; in data set [3] (two daily oral doses at 25 mg/kg delivered 4 hours apart, n=5), “prolongs survival but does not improve efficacy”. In addition, the “infected mice with complete cure” value in data set [3] (three oral doses of 100 mg kg^−1 at 2 h intervals on 1 day, cure = no parasitaemia for >30 days) was 5/5. Moreover, the EC50 came to 0.37 ± 0.04 µM in data set [4] (setting [8]); 0.27 µM in data set [4] (Glycerol 0 mM, read-out: EC50); 0.33 µM in data set [4] (setting [9]); 0.45 µM in data set [4] (setting [10]); 0.32 µM in data set [4] (Glycerol […], read-out: EC50); 20800 nM in data set [6]. Further, it took 3980 nM to reach half-maximal inhibition in data set [5] (IC50). Also, the Selectivity in data set [6] is given as 56.
